Patent US20260216151A1, “GPR65 MODULATORS” (Pathios Therapeutics Limited, priority 2023, published 2026)

Target: T1, human recombinant GPR65 (Homo sapiens, UniProt Q8IYL9)
T1 construct: host or cells: 1321N1 human astrocytoma cells (1321N1-hrGPR65)
Assay: Human GPR65 cAMP HTRF antagonist assay
Type: cell-based
Settings: 1321N1-hrGPR65 cells, assay pH 7.2, cAMP HTRF; read-out: hGPR65 IC50
Protocol: Human GPR65 Cyclic Adenosine Monophosphate (cAMP) Homogeneous Time Resolved Fluorescence (HTRF) Antagonist Assay Procedure
IC50 data was obtained by the following procedure:
1321N1 human astrocytoma cells stably expressing human recombinant GPR65 (1321N1-hrGPR65 cells, EuroscreenFast) were cultured according to the vendor's instructions.
Compounds were tested for their ability to antagonise GPR65, through measuring the concentration of cytoplasmic cAMP following treatment of the cells at a pH of 7.2 to activate GPR65 signalling and addition of the compound to be tested. The extent to which the expected rise in cAMP concentration upon GPR65 activation was suppressed by the added compound is indicative of its potency. The assay was carried out according to EuroscreenFast assay Methodology as follows.
On the day of the assay, test compounds were added to 384-well, low volume, white microtiter plates by acoustic dispensing. KRH buffer (5 mM KCl, 1.25 mM MgSO4, 124 mM NaCl, 25 mM HEPES, 13.3 mM Glucose, 1.25 mM KH2PO4 and 1.45 mM CaCl2) was adjusted to pH 6.5, pH 7.6 and pH 8.4 by adding NaOH. 1321N1-hGPR65 cells were rapidly thawed and diluted in KRH, pH 7.6 prior to centrifugation at 300×g for 5 min and resuspension in assay buffer (KRH, pH 7.6, supplemented with 1 mM 3-isobutyl-1-methylxanthine (IBMX) and 200 μM ethylenediaminetetraacetic acid (EDTA)). Cells were added to assay plates at a density of 2,000 cells per well in a volume of 5 μl. Assay plates were briefly centrifuged at 100×g and then incubated at room temperature for 30 min. Cells were stimulated by the addition of 5 μL KRH, pH 6.5, to achieve an assay pH of 7.2, while control wells received 5 μl KRH, pH 8.4 to achieve an assay pH of 7.9. Assay plates were briefly centrifuged at 100×g and then incubated at room temperature for 30 min.
Accumulation of cAMP was detected by cAMP HTRF kit (Cisbio). d2-labeled cAMP and cryptate-labeled anti-cAMP antibody in Lysis and Detection Buffer (Cisbio) were added to assay plates, and the plates were incubated at room temperature for 1 h. HTRF measurements were performed using a Pherastar FSX instrument. Acceptor and donor emission signals were measured at 665 nm and 620 nm, respectively, and HTRF ratios were calculated as signal665 nm/signal620 nm×10^4. Data were normalised to high and low control values and fitted with 4-parameter logistic regression to determine hGPR65 IC50 values for the test compounds, which are shown in Table 1.

T1 sequence (Q8IYL9 whole entry): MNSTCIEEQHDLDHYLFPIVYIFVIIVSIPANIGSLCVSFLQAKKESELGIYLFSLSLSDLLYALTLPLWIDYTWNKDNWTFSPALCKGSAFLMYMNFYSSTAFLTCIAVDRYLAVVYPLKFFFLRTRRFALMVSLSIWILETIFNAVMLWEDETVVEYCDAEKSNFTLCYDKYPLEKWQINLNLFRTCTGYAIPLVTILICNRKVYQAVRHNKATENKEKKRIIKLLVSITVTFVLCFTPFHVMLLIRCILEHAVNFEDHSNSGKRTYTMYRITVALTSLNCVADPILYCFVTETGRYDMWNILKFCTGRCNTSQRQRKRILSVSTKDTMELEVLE

IC50 [nM] | Structure (SMILES)
< 500 | O=C(Nc1cc(Cl)c(-c2ccc3nonc3c2)cc1F)N1CCc2cc(=O)[nH]cc2C1 [Compound 1, N-(4-(Benzo[c][1,2,5]oxadiazol-5-yl)-5-chloro-2-fluorophenyl)-6-oxo-3,4,6,7-tetrahydro-2,7-naphthyridine-2(1H)-carboxamide]
< 500 | COc1ccc(-c2cc(F)c(NC(=O)N3CCc4cc(=O)[nH]cc4C3)cc2Cl)cn1 [Compound 2, N-(5-Chloro-2-fluoro-4-(6-methoxypyridin-3-yl)phenyl)-6-oxo-3,4,6,7-tetrahydro-2,7-naphthyridine-2(1H)-carboxamide]
500 to 5000 | O=C(Nc1cc(Cl)c(-c2ccc(F)nc2)cc1F)N1CCc2cc(=O)[nH]cc2C1 [Compound 3, N-(5-chloro-2-fluoro-4-(6-fluoropyridin-3-yl)phenyl)-6-oxo-3,4,6,7-tetrahydro-2,7-naphthyridine-2(1H)-carboxamide]
500 to 5000 | O=C(Nc1cc(Cl)c(-c2cnc3nonc3c2)cc1F)N1CCc2cc(=O)[nH]cc2C1 [Compound 4, N-(4-([1,2,5]Oxadiazolo[3,4-b]pyridin-6-yl)-5-chloro-2-fluorophenyl)-6-oxo-3,4,6,7-tetrahydro-2,7-naphthyridine-2(1H)-carboxamide]
< 500 | O=C(Nc1cc(Cl)c(-c2cnc3nonc3c2)cc1F)N1CCc2c(ccnc2F)C1 [Compound 5, N-(4-([1,2,5]Oxadiazolo[3,4-b]pyridin-6-yl)-5-chloro-2-fluorophenyl)-5-fluoro-3,4-dihydro-2,6-naphthyridine-2(1H)-carboxamide]
< 500 | O=C(Nc1cc(Cl)c(-c2ccc(OCC(F)(F)F)nc2)cc1F)N1CCc2cc(=O)[nH]cc2C1 [Compound 6, N-(5-Chloro-2-fluoro-4-(6-(2,2,2-trifluoroethoxy)pyridin-3-yl)phenyl)-6-oxo-3,4,6,7-tetrahydro-2,7-naphthyridine-2(1H)-carboxamide]
< 500 | O=C(Nc1cc(Cl)c(-c2cc(F)c3nonc3c2)cc1F)N1CCc2cc(=O)[nH]cc2C1 [Compound 7, N-(5-Chloro-2-fluoro-4-(7-fluorobenzo[c][1,2,5]oxadiazol-5-yl)phenyl)-6-oxo-3,4,6,7-tetrahydro-2,7-naphthyridine-2(1H)-carboxamide]
< 500 | O=C(Nc1cc(Cl)c(-c2cc3nonc3cc2F)cc1F)N1CCc2cc(=O)[nH]cc2C1 [Compound 8, N-(5-Chloro-2-fluoro-4-(6-fluorobenzo[c][1,2,5]oxadiazol-5-yl)phenyl)-6-oxo-3,4,6,7-tetrahydro-2,7-naphthyridine-2(1H)-carboxamide]
< 500 | O=C(Nc1cc(Cl)c(-c2cnc(OCC(F)(F)F)c(F)c2)cc1F)N1CCc2cc(=O)[nH]cc2C1 [Compound 10, N-(5-Chloro-2-fluoro-4-(5-fluoro-6-(2,2,2-trifluoroethoxy)pyridin-3-yl)phenyl)-6-oxo-3,4,6,7-tetrahydro-2,7-naphthyridine-2(1H)-carboxamide]
< 500 | O=C(Nc1cc(Cl)c(-c2ccnc(OCC(F)(F)F)c2)cc1F)N1CCc2cc(=O)[nH]cc2C1 [Compound 11, N-(5-Chloro-2-fluoro-4-(2-(2,2,2-trifluoroethoxy)pyridin-4-yl)phenyl)-6-oxo-3,4,6,7-tetrahydro-2,7-naphthyridine-2(1H)-carboxamide]
< 500 | O=C(Nc1cc(Cl)c(-c2ccc(OCC(F)(F)F)nc2)cc1F)N1CCc2cc(=O)[nH]nc2C1 [Compound 12, N-(5-Chloro-2-fluoro-4-(6-(2,2,2-trifluoroethoxy)pyridin-3-yl)phenyl)-3-oxo-2,5,6,8-tetrahydropyrido[3,4-c]pyridazine-7(3H)-carboxamide]
< 500 | O=C(Nc1cc(Cl)c(-c2ccc3nonc3c2)cc1F)N1CCc2cc(=O)[nH]nc2C1 [Compound 13, N-(4-(Benzo[c][1,2,5]oxadiazol-5-yl)-5-chloro-2-fluorophenyl)-3-oxo-2,5,6,8-tetrahydropyrido[3,4-c]pyridazine-7(3H)-carboxamide]
500 to 5000 | COc1cc(-c2ccc(OCC(F)(F)F)nc2)c(Cl)cc1NC(=O)N1CCc2cc(=O)[nH]cc2C1 [Compound 14, N-(5-chloro-2-methoxy-4-(6-(2,2,2-trifluoroethoxy)pyridin-3-yl)phenyl)-6-oxo-3,4,6,7-tetrahydro-2,7-naphthyridine-2(1H)-carboxamide]
500 to 5000 | Cc1cc(-c2ccc(OCC(F)(F)F)nc2)c(Cl)cc1NC(=O)N1CCc2cc(=O)[nH]cc2C1 [Compound 15, N-(5-Chloro-2-methyl-4-(6-(2,2,2-trifluoroethoxy)pyridin-3-yl)phenyl)-6-oxo-3,4,6,7-tetrahydro-2,7-naphthyridine-2(1H)-carboxamide]
> 5000 | O=C(Nc1cc(Cl)c(-c2ccc(F)nc2)cc1OCc1ccccc1)N1CCc2cc(=O)[nH]cc2C1 [Compound 16, N-(2-(Benzyloxy)-5-chloro-4-(6-fluoropyridin-3-yl)phenyl)-6-oxo-3,4,6,7-tetrahydro-2,7-naphthyridine-2(1H)-carboxamide]

Structure (SMILES) | IC50 [nM]
CC(C)COc1ccc(-c2cc(F)c(NC(=O)N3CCc4cc(=O)[nH]cc4C3)cc2Cl)cn1 [Compound 9, N-(5-Chloro-2-fluoro-4-(6-isobutoxypyridin-3-yl)phenyl)-6-oxo-3,4,6,7-tetrahydro-2,7-naphthyridine-2(1H)-carboxamide] | < 500
